From patent publication US9540323B2 (BRISTOL-MYERS SQUIBB COMPANY, priority 2012, dated 2017) come the findings set out here.

Where two headings read alike, the source gives them in different places.

Test [1] concerns the target cloned human P2Y1 receptors (Homo sapiens (Human), UniProt P47900). Briefly: Binding Assay B - Scintillation Proximity Assay (SPA) for P2Y1 binding, [33P] 2MeS-ADP. Particulars: read-out: P2Y1 Ki (nM) using binding assay B. The protocol: Binding Assay B—Scintillation Proximity Assay (SPA) for P2Y1 Binding
A SPA membrane binding assay was used to identify inhibitors of [^33P] […] Reactions were allowed to proceed to completion at room temperature for 1 hour followed by centrifugation of the plate for 5 min. About 40 μL of the aqueous solution was aspirated. Plates were sealed and the [^33P]
A general note: SPA uses beads or plates that emit light when radiolabelled molecules are held near them.

Test [2] has as its system human platelet rich plasma (PRP). Briefly: ADP induced platelet aggregation assay. Particulars: Homo sapiens, Platelet, 5 min, read-out: PA IC50 (μM) @ 10 μM ADP, human PRP, 10 μM ADP, AUC at 5 minute.
[3] abbreviates: SPA, 0.3 nM [33P] 2MeS-ADP, Cheng-Prusoff.

Chain of cloned human P2Y1 receptors (P47900 whole entry): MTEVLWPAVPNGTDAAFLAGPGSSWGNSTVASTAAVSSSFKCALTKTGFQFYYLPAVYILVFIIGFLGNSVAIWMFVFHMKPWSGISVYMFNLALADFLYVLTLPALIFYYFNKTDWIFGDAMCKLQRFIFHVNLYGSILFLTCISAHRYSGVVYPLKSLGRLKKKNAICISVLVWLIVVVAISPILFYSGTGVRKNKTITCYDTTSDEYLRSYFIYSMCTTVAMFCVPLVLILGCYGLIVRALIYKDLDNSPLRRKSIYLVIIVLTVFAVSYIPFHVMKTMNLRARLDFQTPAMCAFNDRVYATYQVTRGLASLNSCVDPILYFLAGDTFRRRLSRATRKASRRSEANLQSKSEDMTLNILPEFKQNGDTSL

The Ki is a dissociation constant, usually derived from enzyme kinetics or from competition with a known ligand. As a reminder, the IC50 is the midpoint of a concentration-inhibition curve. As for `CC1(C)CN(c2ccccc2NC(=O)Nc2csc(C(F)(F)F)n2)c2c(O)cc(F)c(-c3ccc(F)cc3)c21` [Example 228, 1-(2-(5-Fluoro-4-(4-fluorophenyl)-7-hydroxy-3,3-dimethylindolin-1-yl)phenyl)-3-(2-(trifluoromethyl)thiazol-4-yl)urea], the Ki in test [1] (setting [3]) came out at 13.6 nM. The IC50 in test [2] stood at 0.3 µM.

`CCC1(CC)CN(c2ccccc2NC(=O)Nc2ccc(C3CCN(CC(C)(C)C)CC3)cc2)c2c1ccc(F)c2O` [Example 37, 1-(2-(3,3-Diethyl-6-fluoro-7-hydroxyindolin-1-yl)phenyl)-3-(4-(1-neopentylpiperidin-4-yl)phenyl)urea]: the Ki in test [1] (setting [3]) came to 8.7 nM. In test [2], the IC50 amounted to 0.89 µM.

As to `CC1(C)CN(c2ccccc2NC(=O)Nc2ccc(OC(F)(F)F)cc2)c2c(O)ccc(-c3nc4ccccc4s3)c21` [Example 83], the inhibition constant (Ki) in test [1] (setting [3]) amounted to 14.7 nM. Besides, in test [2], the 50% inhibitory concentration (IC50) was determined as 0.86 µM.

Turning to `CCC1(CC)CN(c2ccccc2NC(=O)Nc2ccc(OC(F)(F)F)cc2)c2c(O)ccc(C(F)(F)F)c21` [Example 24, 1-(2-(3,3-Diethyl-7-hydroxy-4-(trifluoromethyl)indolin-1-yl)phenyl)-3-(4-(trifluoromethoxy)phenyl)urea], the Ki in test [1] (setting [3]) turned out to be 7.6 nM. Further, in test [2], the half-maximal inhibitory concentration (IC50) is 0.22 µM.

For the compound `CC1(C)CN(c2ccccc2NC(=O)Nc2ccc(OC(F)(F)F)cc2)c2c(O)ccc(-c3ccc(F)c(F)c3)c21` [Example 204, 1-(2-(4-(3,4-Difluorophenyl)-7-hydroxy-3,3-dimethylindolin-1-yl)phenyl)-3-(4-(trifluoromethoxy)phenyl)urea], the inhibition constant Ki in test [1] (setting [3]) was found to be 7.7 nM. Besides, the IC50 in test [2] is 0.4 µM.

`CC1(C)CN(c2ccccc2NC(=O)Nc2ccc(OC(F)(F)F)cc2)c2c(O)ccc(-c3ncc(F)cn3)c21` [Example 133, 1-(2-(4-(5-Fluoropyrimidin-2-yl)-7-hydroxy-3,3-dimethylindolin-1-yl)phenyl)-3-(4-(trifluoromethoxy)phenyl)urea]: in test [1] (setting [3]), the Ki turned out to be 10.2 nM. Besides, the half-maximal inhibitory concentration (IC50) in test [2] stood at 0.69 µM.

`CC(C)(C)c1ccc(NC(=O)Nc2ccccc2N2CC(C)(C)c3c(C(F)(F)F)ccc(O)c32)cc1` [Example 13, 1-(4-tert-Butylphenyl)-3-(2-(7-hydroxy-3,3-dimethyl-4-(trifluoromethyl)indolin-1-yl)phenyl)urea]: the inhibitory constant (Ki) in test [1] (setting [3]) was 8.2 nM. Besides, in test [2], the IC50 came out at 0.13 µM.

For `CC(C)CN1CCC(c2ccc(NC(=O)Nc3ccccc3N3CC(C)(C)c4c(-c5ccc(F)cc5)ccc(O)c43)cc2)CC1` [Example 211, 1-(2-(4-(4-Fluorophenyl)-7-hydroxy-3,3-dimethylindolin-1-yl)phenyl)-3-(4-(1-isobutylpiperidin-4-yl)phenyl)urea], the Ki in test [1] (setting [3]) was 27.1 nM. The IC50 in test [2] stood at 0.46 µM.

As for `CC1(C)CN(c2ccccc2NC(=O)Nc2ccc(OC(F)(F)F)cc2)c2c(O)ccc(-c3nc4ccccc4o3)c21` [Example 82, 1-(2-(4-(Benzo[d]oxazol-2-yl)-7-hydroxy-3,3-dimethylindolin-1-yl)phenyl)-3-(4-(trifluoromethoxy)phenyl)urea], the Ki in test [1] (setting [3]) turned out to be 15.8 nM. In test [2], the IC50 amounted to 0.99 µM.

Turning to `CC1(C)CN(c2ccccc2NC(=O)Nc2ccc(OC(F)(F)F)cc2)c2c(O)ccc(C3=NC(C(C)(C)C)CO3)c21` (stereo not shown) [Example 104, 1-(2-(4-(4-tert-Butyl-4,5-dihydrooxazol-2-yl)-7-hydroxy-3,3-dimethylindolin-1-yl)phenyl)-3-(4-(trifluoromethoxy)phenyl)urea], the inhibitory constant (Ki) in test [1] (setting [3]) amounted to 9.1 nM. For the same compound, the half-inhibitory concentration (IC50) in test [2] was 0.46 µM.

Turning to `CC1(C)CN(c2ccccc2NC(=O)Nc2ccc(OC(F)(F)F)cc2)c2c(O)ccc(-c3ccccc3)c21` [Example 195, 1-(2-(7-Hydroxy-3,3-dimethyl-4-phenylindolin-1-yl)phenyl)-3-(4-(trifluoromethoxy)phenyl)urea], in test [1] (setting [3]), the inhibition constant Ki amounted to 9 nM. Also, in test [2], the IC50 was 0.18 µM.

On to `CCC1(CC)CN(c2ccccc2NC(=O)Nc2ccc(C(F)(F)F)cc2)c2c(O)ccc(Cl)c21` [Example 52, 1-(2-(4-Chloro-3,3-diethyl-7-hydroxyindolin-1-yl)phenyl)-3-(4-(trifluoromethyl)phenyl) urea], for which the Ki in test [1] (setting [3]) was determined as 12.6 nM. Also, in test [2], the IC50 amounted to 0.28 µM.

With `Cc1cc(-c2c(F)cc(O)c3c2C(C)(C)CN3c2ccccc2NC(=O)Nc2ccc(OC(F)(F)F)cc2)ccc1F` [Example 245, 1-(2-(5-Fluoro-4-(4-fluoro-3-methylphenyl)-7-hydroxy-3,3-dimethylindolin-1-yl)phenyl)-3-(4-(trifluoromethoxy)phenyl)urea], in test [1] (setting [3]), the Ki is 11.4 nM. The IC50 in test [2] was 0.19 µM.

As to `CC1(C)CN(c2ccccc2NC(=O)Nc2ccc(OC(F)(F)F)cc2)c2c(O)ccc(-c3ccnc(F)c3)c21` [Example 112, 1-(2-(4-(2-Fluoropyridin-4-yl)-7-hydroxy-3,3-dimethylindolin-1-yl)phenyl)-3-(4-(trifluoromethoxy)phenyl) urea], in test [1] (setting [3]), the inhibitory constant (Ki) was determined as 9 nM. For the same compound, in test [2], the half-inhibitory concentration (IC50) was 0.43 µM.

In the case of `CC1(C)CN(c2ccccc2NC(=O)Nc2ccc(OC(F)(F)F)cc2)c2c(O)cc(F)c(-c3ccc(C(F)(F)F)nc3)c21` [Example 135, 1-(2-(5-Fluoro-7-hydroxy-3,3-dimethyl-4-(6-(trifluoromethyl)pyridin-3-yl)indolin-1-yl)phenyl)-3-(4-(trifluoromethoxy)phenyl)urea], the Ki in test [1] (setting [3]) was found to be 8.7 nM. Further, the concentration for half-maximal inhibition (IC50) in test [2] was found to be 0.15 µM.

Regarding `CC1(C)CN(c2ccccc2NC(=O)Nc2ccc(OC(F)(F)F)cc2)c2c(O)ccc(-c3ccc(F)cc3F)c21` [Example 203, 1-(2-(4-(2,4-Difluorophenyl)-7-hydroxy-3,3-dimethylindolin-1-yl)phenyl)-3-(4-(trifluoromethoxy)phenyl)urea], the inhibition constant Ki in test [1] (setting [3]) is 8 nM. The IC50 in test [2] came out at 0.16 µM.

`COC(=O)c1ccc(O)c2c1C(C)(C)CN2c1ccccc1NC(=O)Nc1ccc(OC(F)(F)F)cc1` [Example 80, Methyl 7-hydroxy-3,3-dimethyl-1-(2-(3-(4-(trifluoromethoxy)phenyl)ureido)phenyl)indoline-4-carboxylate]: the inhibitory constant (Ki) in test [1] (setting [3]) stood at 9 nM. For the same compound, in test [2], the IC50 stood at 0.84 µM.

Turning to `CC1(C)CN(c2ccccc2NC(=O)Nc2ccc(OC(F)(F)F)cc2)c2c(O)ccc(C#N)c21` [Example 47, 1-(2-(4-Cyano-7-hydroxy-3,3-dimethylindolin-1-yl)phenyl)-3-(4-(trifluoromethoxy)phenyl)urea], the Ki in test [1] (setting [3]) is 18.6 nM. The 50% inhibitory concentration (IC50) in test [2] was determined as 3.35 µM.

Regarding `CC(C)(C)c1nc(-c2c(F)cc(O)c3c2C(C)(C)CN3c2ccccc2NC(=O)Nc2nc3ccc(Cl)cc3s2)co1` [Example 270, 1-(2-(4-(2-(tert-Butyl)oxazol-4-yl)-5-fluoro-7-hydroxy-3,3-dimethylindolin-1-yl)phenyl)-3-(6-chlorobenzo[d]thiazol-2-yl)urea], in test [1] (setting [3]), the Ki is 17.3 nM. For the same compound, the concentration for half-maximal inhibition (IC50) in test [2] is 0.43 µM.

`CC1(C)CN(c2ccccc2NC(=O)Nc2nc3ccc(F)cc3s2)c2c(O)cc(F)c(-c3noc(C(F)(F)F)n3)c21` [Example 277, 1-(2-(5-Fluoro-7-hydroxy-3,3-dimethyl-4-(5-(trifluoromethyl)-1,2,4-oxadiazol-3-yl)indolin-1-yl)phenyl)-3-(6-fluorobenzo[d]thiazol-2-yl)urea]: the inhibition constant Ki in test [1] (setting [3]) came out at 54.9 nM. Besides, in test [2], the IC50 stood at 0.26 µM.

As to `CC(C)n1nc(-c2c(F)cc(O)c3c2C(C)(C)CN3c2ccccc2NC(=O)Nc2csc(Cl)n2)cc1C(F)(F)F` [Example 273, 1-(2-Chlorothiazol-4-yl)-3-(2-(5-fluoro-7-hydroxy-4-(1-isopropyl-5-(trifluoromethyl)-1H-pyrazol-3-yl)-3,3-dimethylindolin-1-yl)phenyl)urea], the Ki in test [1] (setting [3]) amounted to 9.4 nM. Moreover, in test [2], the IC50 stood at 0.05 µM.

On to `CC1(C)CN(c2ccccc2NC(=O)Nc2nc3ccc(F)nc3s2)c2c(O)cc(F)c(-c3ccc(Cl)cc3)c21` [Example 227, 1-(2-(4-(4-Chlorophenyl)-5-fluoro-7-hydroxy-3,3-dimethylindolin-1-yl)phenyl)-3-(5-fluorothiazolo[5,4-b]pyridin-2-yl)urea], for which the Ki in test [1] (setting [3]) is 21.6 nM. In addition, the IC50 in test [2] was determined as 0.56 µM.

As for `CC1(C)CN(c2ccccc2NC(=O)Nc2ccc(OC(F)(F)F)cc2)c2c(O)cc(F)c(-c3ccc(Cl)cn3)c21` [Example 162, 1-(2-(4-(5-Chloropyridin-2-yl)-5-fluoro-7-hydroxy-3,3-dimethylindolin-1-yl)phenyl)-3-(4-(trifluoromethoxy)phenyl)urea], the Ki in test [1] (setting [3]) amounted to 6.4 nM. Besides, in test [2], the half-inhibitory concentration (IC50) stood at 0.25 µM.

In the case of `CC(C)(C)CN1CCCC1c1ccc(NC(=O)Nc2ccccc2N2CC(C)(C)c3c(-c4nc5ccc(Cl)cc5o4)ccc(O)c32)cc1` (stereo not shown) [Example 109, 1-(2-(4-(6-Chlorobenzo[d]oxazol-2-yl)-7-hydroxy-3,3-dimethylindolin-1-yl)phenyl)-3-(4-(1-neopentylpyrrolidin-2-yl)phenyl)urea], the Ki in test [1] (setting [3]) came to 22 nM. For the same compound, in test [2], the IC50 was found to be 0.13 µM.

Take `CC1(C)CN(c2ccccc2NC(=O)Nc2ccc(OC(F)(F)F)cc2)c2c(O)ccc(-c3cnccn3)c21` [Example 132, 1-(2-(7-Hydroxy-3,3-dimethyl-4-(pyrazin-2-yl)indolin-1-yl)phenyl)-3-(4-(trifluoromethoxy)phenyl)urea]: in test [1] (setting [3]), the Ki was determined as 18.8 nM. In test [2], the IC50 is 1.29 µM.

Regarding `CC1(C)CN(c2ccccc2NC(=O)Nc2nc3ccc(F)cc3s2)c2c(O)cc(F)c(-c3cc(C(F)(F)F)no3)c21` [Example 264, 1-(2-(5-Fluoro-7-hydroxy-3,3-dimethyl-4-(3-(trifluoromethyl)isoxazol-5-yl)indolin-1-yl)phenyl)-3-(6-fluorobenzo[d]thiazol-2-yl)urea], the Ki in test [1] is 18.2 nM. For the same compound, the IC50 in test [2] was 0.62 µM.
